The values below come from ChEMBL document CHEMBL1201862, “PubChem BioAssay data set” (2004).

Some test systems named below: SF-268; OVCAR-8; UACC-62; SK-OV-3; HL-60; PC-3; HOP-62; A549; NCI-H226; SW-620; HCT-15; M14; OVCAR-5; NCI-H460; LOX IMVI; SK-MEL-28; UACC-257; UO-31; SF-539; Malme-3M.
What all share (assay): DTP human tumour cell line panel, 48 h

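Exposure lasted 48 hours, with cells grown in 96-well plates and compounds tested at five concentrations. The concentration for 50% growth inhibition is given as GI50.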 Calls of active or inactive are those of the source. Rule as the data show it: active = GI50 up to about 1.1 µM and inactive = higher.

Take `C=CCc1cccc2cc(C(N)=O)c(=N)oc12`: the GI50 in the assay on SF-268 is > 10 µM (inactive); with OVCAR-8, > 100 µM (inactive); with UACC-62, 71.8 µM (inactive); in the assay with SK-OV-3, 90.2 µM (inactive); in the assay on HL-60 it was > 100 µM (inactive); in the assay with PC-3, > 100 µM (inactive). Also, the GI50 in the assay with HOP-62 was > 100 µM (inactive); in the assay with A549 it was > 100 µM (inactive); in the assay on NCI-H226 it was 43.9 µM (inactive); with SW-620, > 100 µM (inactive); in the assay on HCT-15 it was greater than 100 µM; with M14 it was > 100 µM (inactive). Besides, the GI50 with OVCAR-5 is > 100 µM (inactive); in the assay with NCI-H460 it was > 100 µM (inactive); in the assay on LOX IMVI, 84.7 µM (inactive); in the assay on SK-MEL-28, > 100 µM (inactive); in the assay on UACC-257, > 100 µM (inactive).
As to `CC1C2C=CC1C(c1c3ccc(=O)c(O)c-3oc3c(O)c(O)ccc13)C2C(=O)O` (configuration not stated), the GI50 in the assay with SF-268 is > 100 µM (inactive); with OVCAR-8, > 100 µM (inactive); in the assay with UACC-62, > 100 µM (inactive); with SK-OV-3 it was > 100 µM (inactive); with HL-60, 44.3 µM (inactive); in the assay on PC-3, > 100 µM (inactive). For the same molecule, the GI50 is > 100 µM (inactive) with HOP-62; 35 µM (inactive) in the assay with A549; 10.2 µM (inactive) in the assay with NCI-H226; > 100 µM (inactive) with UO-31; 34.3 µM (inactive) with SW-620; 47.2 µM in the assay on HCT-15. Also, the GI50 was > 100 µM (inactive) in the assay on M14; > 100 µM (inactive) in the assay on OVCAR-5; > 100 µM (inactive) in the assay with NCI-H460; 20.9 µM (inactive) in the assay on LOX IMVI; > 100 µM (inactive) in the assay on SK-MEL-28; > 100 µM (inactive) in the assay with UACC-257.
With `CCOC(=N)CC(=O)Nc1ccccc1CC`, the GI50 with SF-268, with OVCAR-8, in the assay on UACC-62, with SK-OV-3, in the assay with HL-60 and in the assay with HOP-62 was > 100 µM (inactive) throughout. In addition, the GI50 with SF-539 is > 100 µM (inactive); in the assay on A549, > 100 µM (inactive); in the assay with NCI-H226, > 100 µM (inactive); with UO-31 it was > 100 µM (inactive); in the assay with SW-620, > 100 µM (inactive); in the assay with HCT-15, greater than 100 µM. Also, the GI50 in the assay with M14, in the assay with OVCAR-5, with NCI-H460, in the assay with LOX IMVI, in the assay with Malme-3M and in the assay on SK-MEL-28 was > 100 µM (inactive) each time. Besides, the GI50 in the assay on UACC-257 is > 100 µM (inactive).
`CC(C(=O)n1nnc2ccccc21)N(c1ccccc1)c1ccccc1` (configuration not stated): the GI50 in the assay with SF-268 was > 100 µM (inactive); with OVCAR-8, > 100 µM (inactive); in the assay with UACC-62, > 100 µM (inactive); in the assay on SK-OV-3, > 100 µM (inactive); in the assay on HL-60 it was 45.1 µM (inactive); in the assay on HOP-62, > 100 µM (inactive). Also, the GI50 was > 100 µM (inactive) in the assay on SF-539; 56.9 µM (inactive) with A549; 87.7 µM (inactive) in the assay with NCI-H226; > 100 µM (inactive) in the assay with UO-31; > 100 µM (inactive) in the assay on SW-620; greater than 100 µM with HCT-15. The GI50 in the assay with M14 is > 100 µM (inactive); in the assay with OVCAR-5, > 100 µM (inactive); in the assay on NCI-H460, > 100 µM (inactive); in the assay with LOX IMVI it was 76.6 µM (inactive); with Malme-3M it was 84.7 µM (inactive); in the assay with SK-MEL-28, > 100 µM (inactive). For the same molecule, the GI50 in the assay with UACC-257 was 72.4 µM (inactive).
Turning to `C=C(C)C(=O)O[C@H]1C[C@@]23O[C@@H]2CCC(=C[C@H]2OC(=O)C(=C)[C@H]12)COC3O` (some centres not stated), the GI50 is > 100 µM (inactive) in the assay on SF-268; 39.6 µM (inactive) in the assay on OVCAR-8; 54.1 µM (inactive) in the assay with UACC-62; > 100 µM (inactive) with SK-OV-3; 14.7 µM (inactive) with HL-60; > 100 µM (inactive) in the assay with PC-3. Besides, the GI50 was > 100 µM (inactive) in the assay with HOP-62; > 100 µM (inactive) in the assay with SF-539; > 100 µM (inactive) in the assay on A549; > 100 µM (inactive) in the assay with NCI-H226; 17.9 µM (inactive) in the assay with SW-620; 19.5 µM in the assay on HCT-15. The GI50 in the assay on M14 is 57.5 µM (inactive); with OVCAR-5, > 100 µM (inactive); with NCI-H460, > 100 µM (inactive); with LOX IMVI it was 14.9 µM (inactive); in the assay on UACC-257 it was > 100 µM (inactive).
As to `O=C(CCn1[nH]c(=O)c(Cl)c(Cl)c1=O)NNC(=O)C[n+]1ccccc1`, the GI50 with SF-268, in the assay with OVCAR-8, with UACC-62, in the assay with SK-OV-3, in the assay on HL-60 and with HOP-62 was > 100 µM (inactive) throughout. For the same molecule, the GI50 is > 100 µM (inactive) with SF-539; > 100 µM (inactive) with A549; > 100 µM (inactive) in the assay on NCI-H226; > 100 µM (inactive) in the assay on UO-31; > 100 µM (inactive) in the assay on SW-620; greater than 100 µM with HCT-15. Besides, the GI50 in the assay with M14, in the assay with OVCAR-5, in the assay on NCI-H460, in the assay with LOX IMVI, with Malme-3M and in the assay on SK-MEL-28 was > 100 µM (inactive) throughout. The GI50 with UACC-257 is > 10 µM (inactive).
`CN(C)/C(F)=P\C(F)(F)F` (configuration not stated): the GI50 in the assay on SF-268, in the assay with OVCAR-8, in the assay with UACC-62, in the assay on SK-OV-3, in the assay with HL-60 and in the assay with HOP-62 was > 100 µM (inactive) each time. Besides, the GI50 is > 100 µM (inactive) with SF-539; > 100 µM (inactive) in the assay with A549; > 100 µM (inactive) in the assay with NCI-H226; > 100 µM (inactive) with UO-31; > 100 µM (inactive) in the assay with SW-620; greater than 100 µM in the assay with HCT-15. In addition, the GI50 in the assay with M14, in the assay on OVCAR-5, in the assay on NCI-H460, with LOX IMVI, in the assay with Malme-3M and with SK-MEL-28 was > 100 µM (inactive) throughout. The GI50 with UACC-257 was > 100 µM (inactive).
Turning to `COc1ccc2nc3c(c(NCCCN(C)C)c2c1)CCCC3`, the GI50 is > 10 µM (inactive) with SF-268; 15 µM (inactive) in the assay on OVCAR-8; 16.8 µM (inactive) in the assay on UACC-62; 20.5 µM (inactive) with SK-OV-3; 7.67 µM (inactive) in the assay on HL-60; 16.4 µM (inactive) in the assay with HOP-62. Further, the GI50 is 16.8 µM (inactive) in the assay on SF-539; 21.4 µM (inactive) with A549; 16.3 µM (inactive) with NCI-H226; 16 µM (inactive) in the assay on UO-31; 10.7 µM (inactive) in the assay with SW-620; 16.3 µM in the assay with HCT-15. Further, the GI50 with M14 was 13.3 µM (inactive); in the assay on OVCAR-5 it was 13.5 µM (inactive); with NCI-H460, 10.3 µM (inactive); with LOX IMVI, 12.8 µM (inactive); in the assay with Malme-3M, 19.7 µM (inactive); with SK-MEL-28 it was 16.9 µM (inactive). Besides, the GI50 in the assay with UACC-257 is 17 µM (inactive).
